Where a name gives a salt, the structure may show the parent alone. Read-outs that look alike come from different tables or passages of the source. Bridge positions count the residues as written; N and C are the ends. Ends that are not written are not given here.
What was measured:
P-gp (human MDR1) = experiment: in vitro; conditions: dog, UPLC-MS/MS
Melatonin, Non-selective = biological target: Melatonin, Non-selective; design: method as in PERKIN ELMER; conditions: reference compound of the assay; ref PERKIN ELMER; cited from earlier work
[1] = biological target: Potassium Channel, ATP-Sensitive; design: method as in PERKIN ELMER; conditions: reference compound of the assay; ref PERKIN ELMER; cited from earlier work
Esterase, Acetylcholine = biological target: Esterase, Acetylcholine; design: method as in PERKIN ELMER; conditions: reference compound of the assay; ref PERKIN ELMER; cited from earlier work
Sodium, Site 2 = biological target: Sodium, Site 2; design: method as in PERKIN ELMER; conditions: reference compound of the assay; ref PERKIN ELMER; cited from earlier work
[2] = biological target: Glutamate, Kainate Site (Ionotropic); design: method as in PERKIN ELMER; conditions: reference compound of the assay; ref PERKIN ELMER; cited from earlier work
[3] = biological target: Nitric Oxide, NOS (Neuronal-Binding); design: method as in PERKIN ELMER; conditions: reference compound of the assay; ref PERKIN ELMER; cited from earlier work
human red blood cells = experiment: Haemolysis assay; assay type: cell-based
Procedure: Haemolysis Assay. The assay is based on the protocol detailed by. To determine the total blood haemoglobin, the CMH method was used to map a standard curve based on the absorption wavelength at 540 nm. Nine calibration standards were produced by preparing a stock solution of 5 mg/ml (standard 1) using haemoglobin standards in CMH reagent and serially diluting it to produce further standards of concentrations 2.5, 1, 0.80, 0.40, 0.20, 0.10, 0.05, and 0.025 mg/ml. 10% Triton X-100 (v/v) was prepared using distilled water to be used as the positive control. A 0.05% solution of DMSO was prepared using distilled water and used as one of the negative controls. 0.9% saline was another negative control. Pluronic samples were prepared in 0.9% saline.
A 5 ml vial of whole blood was centrifuged at 800 g for 15 minutes at room temperature. The supernatant was removed, and the […] was used to determine the plasma free haemoglobin (PFH) concentration.
200 μl x 2 of each of the calibration standards prepared were then transferred onto the 96-well plate and 200 μl x 4 of CMH reagent (control 1). […] After shaking it gently for a few minutes, the absorbance was read at 540 nm. […] 100 μl of CMH reagent was added to all these before measuring the absorbance spectrophotometrically at 540 nm. Using the calibration curve mapped earlier, the haemoglobin concentration in each of the wells was determined. […]

[4] = biological target: Glutamate, NMDA Agonist Site (Ionotropic); design: method as in PERKIN ELMER; conditions: reference compound of the assay; ref PERKIN ELMER; cited from earlier work
[5] = cited from earlier work
[6] = biological target: Cholecystokinin, CCK2 (CCKB); design: method as in PERKIN ELMER; conditions: reference compound of the assay; ref PERKIN ELMER; cited from earlier work
[7] = biological target: Adrenergic, Beta, Non-selective; design: method as in PERKIN ELMER; conditions: reference compound of the assay; ref PERKIN ELMER; cited from earlier work
[8] = biological target: Corticotropin Releasing Factor, Non-selective; design: method as in PERKIN ELMER; conditions: reference compound of the assay; ref PERKIN ELMER; cited from earlier work
[9] = biological target: Muscarinic, Non-selective, Central; design: method as in PERKIN ELMER; conditions: reference compound of the assay; ref PERKIN ELMER; cited from earlier work
[10] = biological target: Glycine, Strychnine-sensitive; conditions: read-out: Reference Ki; reference compound of the assay; ref PERKIN ELMER; cited from earlier work
[11] = biological target: GABA A, BDZ, alpha 1 site; conditions: read-out: Reference Ki; reference compound of the assay; ref PERKIN ELMER; cited from earlier work
[12] = biological target: Glutamate, AMPA Site (Ionotropic); design: method as in PERKIN ELMER; conditions: reference compound of the assay; ref PERKIN ELMER; cited from earlier work
Histamine, H1 = biological target: Histamine, H1; design: method as in PERKIN ELMER; conditions: reference compound of the assay; ref PERKIN ELMER; cited from earlier work
[13] = biological target: Glutamate, MK-801 Site (Ionotropic); design: method as in PERKIN ELMER; conditions: reference compound of the assay; ref PERKIN ELMER; cited from earlier work
Angiotensin II, AT2 = biological target: Angiotensin II, AT2; design: method as in PERKIN ELMER; conditions: reference compound of the assay; ref PERKIN ELMER; cited from earlier work
[14] = biological target: Glutamate,NMDA,Glycine (Stry-insens Site) (Ionot); conditions: read-out: Reference Ki; reference compound of the assay; ref PERKIN ELMER; cited from earlier work
Adenosine, Non-selective = conditions: read-out: Reference Ki; reference compound of the assay; ref PERKIN ELMER; cited from earlier work
[15] = biological target: Potassium Channel, Ca2+ Act., VI; design: method as in PERKIN ELMER; conditions: reference compound of the assay; ref PERKIN ELMER; cited from earlier work
[16] = biological target: Nicotinic, Neuronal (a-BnTx insensitive); design: method as in PERKIN ELMER; conditions: reference compound of the assay; ref PERKIN ELMER; cited from earlier work
[17] = biological target: T1, Oxidase, MAO-A-Peripheral (Rattus norvegicus, UniProt P21396); design: method as in PERKIN ELMER; conditions: reference compound of the assay; ref PERKIN ELMER; cited from earlier work
T1 sequence (P21396 1-526): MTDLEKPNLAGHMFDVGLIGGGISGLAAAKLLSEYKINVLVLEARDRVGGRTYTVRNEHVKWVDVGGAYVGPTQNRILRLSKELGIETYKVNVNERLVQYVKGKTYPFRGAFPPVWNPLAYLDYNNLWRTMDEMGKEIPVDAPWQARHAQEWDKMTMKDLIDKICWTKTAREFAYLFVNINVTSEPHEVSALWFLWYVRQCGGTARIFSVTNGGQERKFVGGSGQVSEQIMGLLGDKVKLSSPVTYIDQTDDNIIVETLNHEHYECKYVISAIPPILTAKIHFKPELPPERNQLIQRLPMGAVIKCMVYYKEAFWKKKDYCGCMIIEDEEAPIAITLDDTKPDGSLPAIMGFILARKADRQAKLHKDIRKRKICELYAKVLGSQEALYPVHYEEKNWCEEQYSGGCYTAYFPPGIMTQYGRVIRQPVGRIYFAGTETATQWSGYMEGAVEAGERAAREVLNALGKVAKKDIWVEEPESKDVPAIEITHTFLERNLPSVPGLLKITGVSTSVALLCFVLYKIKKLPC

[18] = biological target: Decarboxylase, Glutamic Acid; design: method as in PERKIN ELMER; conditions: reference compound of the assay; ref PERKIN ELMER; cited from earlier work
[19] = biological target: Imidazoline, I2 [central]; design: method as in PERKIN ELMER; conditions: reference compound of the assay; ref PERKIN ELMER; cited from earlier work
[20] = MDCK-MDR1, pH 7.4, Papp A2B Replicate 1, 10 µM
[21] = MDCK-MDR1, pH 7.4, Papp A2B Replicate 2, 10 µM
[22] = MDCK-MDR1, pH 7.4, Papp B2A Replicate 1, 10 µM
[23] = MDCK-MDR1, pH 7.4, Papp B2A Replicate 2, 10 µM

COc1cc2nc(N3CCN(C(=O)c4ccco4)CC3)nc(N)c2cc1OC [prazosin]
Papp A→B at 1 h, 10 µM (P-gp (human MDR1); [20]): 2.48 ×10⁻⁶ cm/s
Papp A→B at 1 h, 10 µM (P-gp (human MDR1); [21]): 1.96 ×10⁻⁶ cm/s
Papp B→A at 1 h, 10 µM (P-gp (human MDR1); [22]): 69.5 ×10⁻⁶ cm/s
Papp B→A at 1 h, 10 µM (P-gp (human MDR1); [23]): 70.7 ×10⁻⁶ cm/s

COc1ccc(Cl)cc1C(=O)NCCc1ccc(S(=O)(=O)NC(=O)NC2CCCCC2)cc1 [Glibenclamide]
Ki [1]: 0.781 nM

CNC(=O)Oc1ccc2c(c1)[C@]1(C)CCN(C)[C@@H]1N2C [Eserine (Physostigmine)]
Ki (Esterase, Acetylcholine): 385 nM

CCN1C[C@]2(COC)[C@H](O)C[C@H](OC)[C@@]34[C@@H]5C[C@@]6(O)[C@H](OC(=O)c7ccccc7)[C@@H]5[C@@](OC(C)=O)([C@@H]([C@H](OC)[C@H]23)[C@@H]14)[C@@H](O)[C@@H]6OC [Aconitine]
Ki (Sodium, Site 2): 2290 nM

C=C(C)[C@H]1CN[C@H](C(=O)O)[C@H]1CC(=O)O [Kainic Acid]
Ki [2]: 10.8 nM

NC(=NCCC[C@H](N)C(=O)O)N[N+](=O)[O-] [NOARG (Nitro-L-Arginine)]
Ki [3]: 26.3 nM

Triton X-100 [10% Triton X-100]
haemolysis (human red blood cells): caused haemolysis

CN[C@H](CC(=O)O)C(=O)O [NMDA]
Ki [4]: 6.81 µM

c1cc2ccc3cccc4ccc(c1)c2c34 [pyrene]
log P for pyrene/Pluronics ([5]; F68): ca. 2.5
log P for pyrene/Pluronics ([5]; P105): ~3.5

CCK-8 (sulfated)
Ki [6]: 0.307 nM

C=CCc1ccccc1OCC(O)CNC(C)C (centres unmarked) [Alprenolol HCl]
Ki [7]: 4.55 nM

Tyr0-oCRF
Ki [8]: 10.7 nM

CN1[C@@H]2CC[C@H]1C[C@@H](OC(=O)C(CO)c1ccccc1)C2 (some centres unmarked) [Atropine sulfate]
Ki [9]: 0.311 nM

O=C1C[C@@H]2OCC=C3CN4CC[C@]56c7ccccc7N1[C@H]5[C@H]2[C@H]3C[C@H]46 [Strychnine nitrate]
Ki [10]: 28.1 nM

CCOC(=O)c1ncn2c1CN(C)C(=O)c1cc(F)ccc1-2 [Ro15-1788 (Flumazenil)]
Ki [11]: 0.721 nM

Cc1o[nH]c(=O)c1CC(N)C(=O)O (racemic) [(+/-) AMPA HBr]
Ki [12]: 90.7 nM

Cc1ccc(/C(=C\CN2CCCC2)c2ccccn2)cc1 [Triprolidine]
Ki (Histamine, H1): 7.33 nM

(+)-MK-801 HMaleate
Ki [13]: 12.4 nM

Angiotensin II (Human)
Ki (Angiotensin II, AT2): 0.255 nM

O=C(O)/C(=C/c1c(C(=O)O)[nH]c2cc(Cl)cc(Cl)c12)c1ccccc1 [MDL-105,519]
Ki [14]: 31.5 nM

CCNC(=O)[C@H]1O[C@@H](n2cnc3c(N)ncnc32)[C@H](O)[C@@H]1O [Neca]
Ki (Adenosine, Non-selective): 7.46 nM

Apamin (CNCKAPETALCARRCQQH-NH2; disulfide 1-11, 3-15; ends not checked; UniProt P01500 28-45, looked up)
Ki [15]: 0.205 nM

Clc1ccc([C@@H]2C[C@H]3CC[C@@H]2N3)cn1 (racemic) [(+/-) Epibatidine]
Ki [16]: 0.0912 nM

c1cc2c(cc1C1CCCCC1)c1c3n2CCNC3CCC1 (centres unmarked) [Tetrindole mesylate]
Ki [17]: 23.4 nM

CC(C)NCC(O)COc1cccc2ccccc12 (centres unmarked) [propranolol]
Papp A→B at 1 h, 10 µM (P-gp (human MDR1); [20]): 34.1 ×10⁻⁶ cm/s
Papp A→B at 1 h, 10 µM (P-gp (human MDR1); [21]): 28 ×10⁻⁶ cm/s
Papp B→A at 1 h, 10 µM (P-gp (human MDR1); [22]): 41.4 ×10⁻⁶ cm/s
Papp B→A at 1 h, 10 µM (P-gp (human MDR1); [23]): 41.6 ×10⁻⁶ cm/s

NOCC(=O)O [AminoOxy acetic acid]
Ki [18]: 1170 nM

c1ccc2oc(C3=NCCN3)cc2c1 [2-BFI]
Ki [19]: 0.381 nM
